≈ marks a conversion by molar mass, not a printed value.
Tests used:
[1] = Compound solubility in water; conditions: water; for solubility: Compound Solubility in Water
[2] = target: T1, glucocerebrosidase (Gcase) (Homo sapiens, UniProt P04062); assay: Glucocerebrosidase (Gcase) activation assay, 4-methylumbelliferyl-beta-D-glucopyranoside substrate, fluorescence readout; assay type: biochemical; conditions: for activation at 0.1 µM: test compound at 0.1 μM, read-out: Percent Gcase Activation, 0.1 μM Test Compound; for activation at 1 µM: test compound at 1.0 μM, read-out: Percent Gcase Activation, 1 μM Test Compound
T1 construct: micellar solution containing 10 nM GCase and 100 nM saposin C
T1 sequence (P04062 40-536): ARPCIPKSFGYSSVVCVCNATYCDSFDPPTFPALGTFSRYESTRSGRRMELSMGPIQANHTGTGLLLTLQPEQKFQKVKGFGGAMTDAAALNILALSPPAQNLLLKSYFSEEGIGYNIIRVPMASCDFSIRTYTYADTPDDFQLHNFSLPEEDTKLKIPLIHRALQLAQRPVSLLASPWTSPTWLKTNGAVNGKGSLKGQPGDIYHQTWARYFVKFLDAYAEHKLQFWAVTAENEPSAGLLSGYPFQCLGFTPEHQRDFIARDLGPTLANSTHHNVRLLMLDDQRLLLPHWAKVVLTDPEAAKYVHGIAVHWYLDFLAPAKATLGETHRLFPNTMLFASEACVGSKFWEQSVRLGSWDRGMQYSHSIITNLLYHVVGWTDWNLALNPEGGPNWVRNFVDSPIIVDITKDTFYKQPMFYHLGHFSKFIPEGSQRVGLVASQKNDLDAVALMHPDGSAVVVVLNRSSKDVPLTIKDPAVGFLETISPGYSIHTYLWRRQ
Method: The ability of exemplary compounds to activate glucocerebrosidase (Gcase) was measured.
A 484 μL aliquot of a 1.0 mg/mL solution of phosphatidylserine (PS) (Sigma P7769) in chloroform was evaporated under a stream of nitrogen for 1 hour. The lipid film was dissolved over 4 minutes of vigorous vortexing in 40 mL of 176 mM K2HPO4/50 mM citric acid (pH 4.7) containing 7.5 μL of triton X-100, resulting in a mixed micellar preparation with a composition of 0.32 mM triton and 0.37 mol % PS. 4-Methylumbelliferyl-beta-D-glucopyranoside (ACROS-337025000) was dissolved in the micellar solution to a final concentration of 2 mM for use as the reaction substrate.
Test compounds were diluted to the desired concentrations with dimethylsulfoxide (DMSO) from 10 mM stocks, and 0.41 μL of the DMSO compound mixture was added to 100 μL of micellar solution containing 10 nM GCase and 100 nM saposin C (Enzo ALX-201-262-C050). Pre-incubation was allowed to occur for 30 minutes at room temperature, after which the reaction was initiated by combining 25 μL of substrate solution with 25 μL of compound/GCase/saposin mixture. The reaction proceeded for 15 minutes at room temperature and was stopped by adding 150 μL of 1M glycine, pH 12.5. The endpoint of the reaction was monitored by measuring fluorescence intensity (excitation: 365 nm; emission: 440 nm) on a SpectraMax i3 instrument (Molecular Devices). Test compounds were screened at 1.0 and 0.1 μM final concentration, and subsequent 8-point dose response curves were obtained using 3-fold dilutions from a maximum final concentration of 5 μM.

Row | SMILES | solubility [1] [µg/mL] | activation at 0.1 µM [2] [%] | activation at 1 µM [2] [%] | solubility ([1]; in water) [µg/mL] | Compound Solubility in Water [1] [µg/mL]
1 | Cc1cc(C)n2ccc(C(=O)NCC3CCC(F)(F)CC3)c2n1 [III-153] | 15.3 (≈ 47.6 µM) | 10 to 20 | 30 to 60 |  | 
2 | Cc1cc(C)n2ccc(C(=O)Nc3ccc4c(c3)C(Oc3nnc(C)o3)CC4)c2n1 (stereo not drawn) [III-221] |  | < 10 | 30 to 60 | 0.1 (≈ 0.248 µM) | 
3 | CCCCO[C@H]1CC[C@H](NC(=O)c2ccn3c(C(F)F)cc(C)nc23)CC1 [III-68] | 1 (≈ 2.64 µM) | > 20 | > 60 |  | 
4 | CCCCCO[C@H]1CC[C@H](NC(=O)c2ccn3c(C)ccnc23)CC1 [III-260] |  | 10 to 20 | > 60 | 17.7 (≈ 51.5 µM) | 
5 | Cc1cc(C(F)(F)F)nc2c(C(=O)Nc3ccc(-c4cocn4)cc3)ccn12 [III-252] |  | 10 to 20 | > 60 | 1.8 (≈ 4.66 µM) | 
6 | Cc1cc(C2CC2)n2ccc(C(=O)N[C@H]3CC[C@H](OCCCCC(F)(F)F)CC3)c2n1 [III-47] | 0.3 (≈ 0.686 µM) | < 10 | > 60 |  | 
7 | Cc1cc(C)n2ccc(C(=O)NC3CCc4nc(C)oc4C3)c2n1 (stereo not drawn) [III-284] |  | < 10 | < 30 | 21.1 (≈ 65 µM) | 
8 | Cc1cc(Cl)nc2c(C(=O)NC3c4ccccc4C4CC3C4)ccn12 (stereo not drawn) [III-69] | 0.06 (≈ 0.171 µM) | > 20 | > 60 |  | 
9 | CCCO[C@H]1CC[C@H](NC(=O)c2ccn3c(C)cc(C)nc23)CC1 [III-290] |  | < 10 | > 60 | 17.3 (≈ 52.5 µM) | 
10 | Cc1cc(C)n2ccc(C(=O)Nc3ccc4c(c3)OCO4)c2n1 [III-16] | 0.2 (≈ 0.647 µM) | > 20 | > 60 |  | 
11 | Cc1cc(C)n2ccc(C(=O)Nc3ccc(-c4ccco4)cc3)c2n1 [III-117] |  | > 20 | > 60 |  | 0.02
12 | Cc1cc(C(F)(F)F)nc2c(C(=O)NC3CCCc4ccccc43)ccn12 (stereo not drawn) [III-251] |  | > 20 | > 60 | 0.2 (≈ 0.536 µM) | 
13 | COc1cc(NC(=O)c2ccn3c(C)cc(C)nc23)ccc1-c1cnco1 [III-87] | 0.1 (≈ 0.276 µM) | > 20 | 30 to 60 |  | 
14 | Cc1ccnc2c(C(=O)NC3(C)CCOc4ccccc43)ccn12 (stereo not drawn) [III-257] |  | 10 to 20 | > 60 | 28.9 (≈ 89.9 µM) | 
15 | CCCO[C@H]1CC[C@H](CNC(=O)c2ccn3c(C)cc(C)nc23)CC1 [III-240] |  | 10 to 20 | > 60 | 21.4 (≈ 62.3 µM) | 
16 | CCOCCO[C@H]1CC[C@H](NC(=O)c2ccn3c(C)cc(C)nc23)CC1 [III-102] | 38.3 (≈ 107 µM) | < 10 | < 30 |  | 
17 | Cc1ccnc2c(C(=O)N[C@H](C)c3ccc(F)cc3)ccn12 [III-261] |  | 10 to 20 | 30 to 60 | 12.7 (≈ 42.7 µM) | 
18 | Cc1ccnc2c(C(=O)NC3(C)CCOc4ccc(F)cc43)ccn12 (stereo not drawn) [III-264] |  | 10 to 20 | > 60 | 12.5 (≈ 36.8 µM) | 
19 | COCc1cc(C(F)F)n2ccc(C(=O)NC3(C)CCOc4cc(F)c(F)cc43)c2n1 (stereo not drawn) [III-58] | 4.1 (≈ 9.37 µM) | 10 to 20 | > 60 |  | 
20 | Cc1cc(C)n2ccc(C(=O)NC3CCCCC34CCOCC4)c2n1 (stereo not drawn) [III-184] | 19.5 (≈ 57.1 µM) | 10 to 20 | > 60 |  | 
21 | Cc1cc(C)n2ccc(C(=O)NC3CC4CCC(C3)O4)c2n1 (stereo not drawn) [III-169] | 29.3 (≈ 97.9 µM) | < 10 | < 30 |  | 
22 | Cc1cc(C)n2ccc(C(=O)N[C@H]3CC[C@H](Oc4ncccn4)CC3)c2n1 [III-90] | 2.4 (≈ 6.57 µM) | < 10 | < 30 |  | 
23 | CCCCCO[C@H]1CC[C@H](NC(=O)c2ccn3c(C)cc(C)nc23)CC1 [III-201] | 0.5 (≈ 1.4 µM) | > 20 | > 60 |  | 
24 | Cc1cc(C2CC2)n2ccc(C(=O)N[C@H]3CC[C@H](OCCCC(F)(F)F)CC3)c2n1 [III-46] | 1.7 (≈ 4.01 µM) | < 10 | > 60 |  | 
